The target in the assay is Heat shock protein HSP 90-alpha (Homo sapiens, UniProt P07900). The assay is described as follows: Competition Assay. Particulars: pH 7.4. The text has this:
To assess the affinity of compounds binding to Hsp90, we measured their ability to compete with the binding of a fluorescent analog of GA (GM-Bodipy) to Hsp90 using fluoresence polarization.
In the case of `Oc1ccc(-c2nnc(S)n2-c2ccccc2)c(O)c1` [Unsubstituted phenyl ring analog, 2], the IC50 (in general, the midpoint of a concentration-inhibition curve) turned out to be 0.5 nM. That is a sub-nanomolar value.

Compound `CCc1cc(-c2nnc(S)n2-c2cccc3ccccc23)c(O)cc1O` [Ethyl analog, 4] had an IC50 of 0.2 nM. The same measure for `CCOC(=O)NCc1ccc(-n2c(-c3ccc(O)cc3O)n[nH]c2=S)cc1` [Ethyl carbamate analog, 3]: 0.1 nM. The same measure for `CC(C)c1cc(-c2n[nH]c(=S)n2-c2cccc3ccccc23)c(O)cc1O` [lspropyl analog, 5]: 0.1 nM.

Compound `CCOC(=O)NCc1ccc(-n2c(-c3cc(C(C)C)c(O)cc3O)n[nH]c2=S)cc1` [BX-2819] had an IC50 of 0.04 nM. Turning to `Oc1ccc(-c2nnc(S)n2-c2cccc3ccccc23)c(O)c1` [Resorcinol analog, 1], the IC50 was 0.3 nM. Against the preceding compound, the IC50 is about 7.5-fold higher.

Values taken from BindingDB's records for doi:10.1111/j.1747-0285.2009.00833.x (Bayer Healthcare, 2009).
